Data taken from patent US4767872A, “Epoxide derivatives” (Centre National de la Recherche Scientifique (CNRS), priority 1985, dated 1988).

Legend:
[1] = target: T1, RALD (aldehyde reductase) (Rattus norvegicus, UniProt P51635); assay: In vitro test: inhibition of RALD in cellular homogenates of NRK B77 cells; format: biochemical
T1 construct: NADPH, malonic dialdehyde substrate, pH 6
T1 sequence (P51635 1-325): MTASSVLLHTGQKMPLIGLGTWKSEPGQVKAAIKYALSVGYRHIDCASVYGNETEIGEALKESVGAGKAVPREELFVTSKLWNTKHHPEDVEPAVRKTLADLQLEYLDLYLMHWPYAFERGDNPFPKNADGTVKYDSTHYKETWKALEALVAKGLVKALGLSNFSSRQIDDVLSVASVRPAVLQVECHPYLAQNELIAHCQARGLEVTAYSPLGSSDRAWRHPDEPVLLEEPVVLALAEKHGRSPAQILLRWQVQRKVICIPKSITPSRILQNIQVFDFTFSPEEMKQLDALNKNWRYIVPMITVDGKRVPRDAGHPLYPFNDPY
Procedure: Cellular homogenates of NRK B77 cells which contain about 500 micrograms of the enzyme are prepared and incubated with the compound of Example 1 at doses of 0.2 mM, 0.8 mM and 1 mM. The incubation lasts for 15, 30 or 60 minutes.
After incubation, an aliquot is added to the substrate which is 2 mM malonic dialdehyde dissolved in a phosphate buffer of pH 6 containing 0.35 mM of NADPH (co-factor of the enzyme).
The optical density is measured every minute, for 5 minutes, at 340 nm.
The transformation of NADPH into […] causes a linear reduction of the optical density. The inhibiting effect is evaluated by the difference between the variation of the optical density in the controls (without inhibitor) and the variation of the optical density with the inhibitor.

MRC5 [2] = assay: Growth inhibition, normal diploid cells MRC5 (Table 1); format: cell-based; conditions: Homo sapiens, 96 h, 4 days, read-out: Cellular growth, percentage of inhibition
Procedure: (§1) The tests are carried out in the following manner:
(§2) A culture medium, constituted by the Eagle minimum medium to which has been added 10% of calf serum, is seed with 2×10^5 cells being studied.
(§3) After 4 days of culture, the inhibition relative to non-treated control cultures is measured.

NRK [3] = assay: Growth inhibition, established line NRK (Table 1); format: cell-based, rat; conditions: 4 days
Procedure: as §1, §2, §3

HeLa [4] = assay: Growth inhibition, transformed cells HeLa (Table 1); format: cell-based; conditions: Homo sapiens, 96 h, 4 days, read-out: Cellular growth, percentage of inhibition
Procedure: as §1, §2, §3

HEp2 = assay: Growth inhibition, transformed cells HEp2 (Table 1); format: cell-based, human; conditions: 4 days
Procedure: as §1, §2, §3

293 = assay: Growth inhibition, transformed cells 293 (Table 1); format: cell-based, human; conditions: 4 days
Procedure: as §1, §2, §3

NRK B77 [5] = assay: Growth inhibition, transformed cells NRK B77 (Table 1); format: cell-based; conditions: Rattus norvegicus, 96 h, 4 days, read-out: Cellular growth, percentage of inhibition
Procedure: as §1, §2, §3

Toxicity on mice = format: in vivo; conditions: intraperitoneal
Procedure: The study of the toxicity has been carried out on mice. The product of Example 1 is administered intraperitoneally at a dosage of 3 g/kg body weight daily for 8 days.

CEC = assay: Detection test with compound of formula V, normal cells CEC (Table II); format: cell-based, chicken; conditions: Gallus gallus, read-out: inhibition of the growth of the cells
Procedure: (§4) Petri dishes having a diameter of 10 cm are seeded with 10^6 cells to be studied. At the end of 4 hours after seeding, the compound of formula V (with R'=R"=CH3, R'"=H) is added in the form of an aqueous solution containing 0.14 M NaCl, the solution having a volume of 100 microliters. The effect of the compound of formula V is studied at various concentrations.

MRC5 [6] = assay: Detection test with compound of formula V, normal cells MRC5 (Table II); format: cell-based; conditions: Homo sapiens, read-out: inhibition of the growth of the cells
Procedure: as §4

NRK [7] = assay: Detection test with compound of formula V, benign transformed cells NRK (Table II); format: cell-based; conditions: Rattus norvegicus, read-out: inhibition of the growth of the cells
Procedure: as §4

NRK B77 [8] = assay: Detection test with compound of formula V, malignant cells NRK B77 (Table II); format: cell-based; conditions: Rattus norvegicus, read-out: inhibition of the growth of the cells
Procedure: as §4

HeLa [9] = assay: Detection test with compound of formula V, malignant cells HeLa (Table II); format: cell-based; conditions: Homo sapiens, read-out: inhibition of the growth of the cells
Procedure: as §4

With `CC(C)(N)C#CC1(C)CO1` (stereo not shown) [Example 1, 5,6-epoxy-2,5-dimethyl-3-hexyne-2-amine] the “inhibition of the RALD activity” value ([1]; 1 mM, 30 minutes) was “total inhibition”, the remaining activity at 800 µM ([1]; 0.5 h, 0.8 mM, 30 minutes) was roughly 10% and the remaining activity at 200 µM ([1]; 1 h, 0.2 mM, 60 minutes) was less than 25%. It also gave an inhibition at 100 µM (MRC5 [2]; MRC5, 1 × 10^-4 M) of 0%, an inhibition at 200 µM (MRC5 [2]; MRC5, 2 × 10^-4 M) of 0% and an inhibition at 400 µM (MRC5 [2]; MRC5, 4 × 10^-4 M) of 0%. For the same compound, the inhibition at 50 µM (MRC5 [2]; MRC5, 5 × 10^-5 M) was 0%, the inhibition at 600 µM (MRC5 [2]; MRC5, 6 × 10^-4 M) was 0% and the “Cellular growth, percentage of inhibition” value (NRK [3]; 6 × 10^-4 M) was “Dead”. It also gave an inhibition at 200 µM (NRK [3]; Rattus norvegicus, 96 h, 2 × 10^-4 M, read-out: Cellular growth, percentage of inhibition) of 30%, an inhibition at 400 µM (NRK [3]; Rattus norvegicus, 96 h, 4 × 10^-4 M, read-out: Cellular growth, percentage of inhibition) of 60% and an inhibition at 100 µM (HeLa [4]; 1 × 10^-4 M) of 0%. The inhibition at 200 µM (HeLa [4]; 2 × 10^-4 M) was 20%, the inhibition at 400 µM (HeLa [4]; 4 × 10^-4 M) was 80% and the inhibition at 50 µM (HeLa [4]; 5 × 10^-5 M) was 0%. The inhibition at 600 µM (HeLa [4]; 6 × 10^-4 M) was 90%, the “Cellular growth, percentage of inhibition” value (HEp2; HEp2, 6 × 10^-4 M) was “Dead” and the inhibition at 100 µM (HEp2; Homo sapiens, HEp-2, 96 h, HEp2, 1 × 10^-4 M, read-out: Cellular growth, percentage of inhibition) was 0%. The inhibition at 200 µM (HEp2; Homo sapiens, HEp-2, 96 h, HEp2, 2 × 10^-4 M, read-out: Cellular growth, percentage of inhibition) was 20%, the inhibition at 400 µM (HEp2; Homo sapiens, HEp-2, 96 h, HEp2, 4 × 10^-4 M, read-out: Cellular growth, percentage of inhibition) was 80% and the inhibition at 50 µM (HEp2; Homo sapiens, HEp-2, 96 h, HEp2, 5 × 10^-5 M, read-out: Cellular growth, percentage of inhibition) was 0%. For the same compound, the “Cellular growth, percentage of inhibition” value (293; 293, 1 × 10^-4 M) was 50%, the “Cellular growth, percentage of inhibition” value (293; 293, 2 × 10^-4 M) was 90% and the “Cellular growth, percentage of inhibition” value (293; 293, 4 × 10^-4 M) was “Dead”. The “Cellular growth, percentage of inhibition” value (293; 293, 5 × 10^-5 M) was 20%, the “Cellular growth, percentage of inhibition” value (293; 293, 6 × 10^-4 M) was “Dead” and the inhibition at 100 µM (NRK B77 [5]; NRK B77, 1 × 10^-4 M) was 0%. It also gave an inhibition at 200 µM (NRK B77 [5]; NRK B77, 2 × 10^-4 M) of 0%, an inhibition at 400 µM (NRK B77 [5]; NRK B77, 4 × 10^-4 M) of 50% and an inhibition at 50 µM (NRK B77 [5]; NRK B77, 5 × 10^-5 M) of 0%. For the same compound, the inhibition at 600 µM (NRK B77 [5]; NRK B77, 6 × 10^-4 M) was 60%, the apparent toxicity (Toxicity on mice; 3 g/kg daily for 8 days) was “No apparent toxicity” and the LD50 (Toxicity on mice; mouse, in vivo, ip, read-out: DL50 (the source's name)) was greater than 3000 mg/kg.
`CC(C)(N)C#CC=O` gave an inhibition at 5 µM (CEC; 0.5 × 10^-5 M) of 0%, an inhibition at 100 µM (CEC; 1 × 10^-4 M) of 0% and an inhibition at 200 µM (CEC; 2 × 10^-4 M) of 0%. For the same compound, the inhibition at 400 µM (CEC; 4 × 10^-4 M) was 10%, the inhibition at 600 µM (CEC; 6 × 10^-4 M) was 12% and the inhibition at 5 µM (MRC5 [6]; MRC5, 0.5 × 10^-5 M) was 0%. It also gave an inhibition at 100 µM (MRC5 [6]; MRC5, 1 × 10^-4 M) of 0%, an inhibition at 200 µM (MRC5 [6]; MRC5, 2 × 10^-4 M) of 0% and an inhibition at 400 µM (MRC5 [6]; MRC5, 4 × 10^-4 M) of 0%. It also gave an inhibition at 600 µM (MRC5 [6]; MRC5, 6 × 10^-4 M) of 18%, an inhibition at 5 µM (NRK [7]; 0.5 × 10^-5 M) of 0% and an inhibition at 100 µM (NRK [7]; 1 × 10^-4 M) of 0%. For the same compound, the inhibition at 200 µM (NRK [7]; 2 × 10^-4 M) was 0%, the inhibition at 400 µM (NRK [7]; 4 × 10^-4 M) was 0% and the inhibition at 600 µM (NRK [7]; 6 × 10^-4 M) was 0%. The inhibition at 5 µM (NRK B77 [8]; NRK B77, 0.5 × 10^-5 M) was 0%, the inhibition at 100 µM (NRK B77 [8]; NRK B77, 1 × 10^-4 M) was 16% and the inhibition at 200 µM (NRK B77 [8]; NRK B77, 2 × 10^-4 M) was 31%. The inhibition at 400 µM (NRK B77 [8]; NRK B77, 4 × 10^-4 M) was 57%, the inhibition at 600 µM (NRK B77 [8]; NRK B77, 6 × 10^-4 M) was 79% and the inhibition at 5 µM (HeLa [9]; 0.5 × 10^-5 M) was 0%. It also gave an inhibition at 100 µM (HeLa [9]; 1 × 10^-4 M) of 18%, an inhibition at 200 µM (HeLa [9]; 2 × 10^-4 M) of 36% and an inhibition at 400 µM (HeLa [9]; 4 × 10^-4 M) of 78%. The inhibition at 600 µM (HeLa [9]; 6 × 10^-4 M) was 91%.
